Reference: paper PMC2409929 (British Journal of Cancer, 2004)
Marks after values point to notes of the source that are not given here.

System: patients with metastatic colorectal cancer
Experiment: Toxicity graded by NCI-CTC in the phase II trial
Assay type: in vivo, human
Details: for Anaemia, Grade 3–4, %Patients / Anaemia, all grades, %Patients / Leukocytopenia, Grade 3–4, %Patients / Leukocytopenia, all grades, %Patients / Neutropenia, Grade 3–4, %Patients / Neutropenia, all grades, %Patients / Thrombocytopenia, Grade 3–4, %Patients / Thrombocytopenia, all grades, %Patients: worst grade during study
Protocol: Haematology was checked weekly.
Otherwise, they were analysed by nonparametric methods. […] All tests for significance were two-tailed.

[1] = arm C (250 mg m^−2 90-min i.v. q2 weeks)
[2] = arm C (250 mg m^−2 90-min i.v. q2 weeks), possibly or probably related
[3] = arm D (10 mg m^−2 day^−1 14-day continuous infusion q3 weeks)
[4] = arm D (10 mg m^−2 day^−1 14-day continuous infusion q3 weeks), possibly or probably related

Question: With `CCc1c2c(nc3ccc(OC(=O)N4CCC(N5CCCCC5)CC4)cc13)-c1cc3c(c(=O)n1C2)COC(=O)[C@]3(O)CC` [irinotecan] as the molecule, how does the “Discontinuation due to toxicity, main reason diarrhoea” value [1] read?
Answer: Its value is 7%.

Question: What about the “Episodes of grade 3–4 neutropenia with duration <8 days” value [1] of the same molecule?
Answer: The value was 84%.

Question: What about the “Febrile neutropenia, %Cycles” value [1] of the same molecule?
Answer: Its value is 1%.

Question: What about the “Febrile neutropenia, %Patients” value [1] of the same molecule?
Answer: The value was 7%.

Question: And the “Leukocytopenia, Grade 3–4, %Cycles” value [1]?
Answer: Its value is 6%.

Question: And the “Leukocytopenia, all grades, %Cycles” value [1]?
Answer: The value was 56%.

Question: What about the “Neutropenia, Grade 3–4, %Cycles” value [1] of the same molecule?
Answer: Its value is 20%.

Question: What about the “Neutropenia, all grades, %Cycles” value [1] of the same molecule?
Answer: The value was 57%.

Question: And the “Neutropenic infection, %Cycles” value [1]?
Answer: The value was 1%.

Question: And the “Neutropenic infection, %Patients” value [1]?
Answer: The value was 2%.

Question: And the “Number of patients with at least one grade 3–4 adverse event possibly or probably related to irinotecan” value [1]?
Answer: Its value is 14.

Question: And the “Patients who discontinued treatment due to toxicity (from the study drug)” value [1]?
Answer: Its value is 11%.

Question: What about the “Patients with at least one grade 3–4 adverse event possibly or probably related to irinotecan, %” value [1] of the same molecule?
Answer: The value was 30%.

Question: What about the “Thrombocytopenia, Grade 3–4, %Cycles” value [1] of the same molecule?
Answer: Its value is 0/0%.

Question: And the “Thrombocytopenia, all grades, %Cycles” value [1]?
Answer: The value was 6%.

Question: And the “Alopecia, all grades, % of patients” value [2]?
Answer: Its value is 67 ^b %.

Question: And the “Anorexia, all grades, % of patients” value [2]?
Answer: Its value is 17%.

Question: What about the “Cholinergic syndrome, Grade 3–4, % of patients” value [2] of the same molecule?
Answer: The value was 2%.

Question: What about the “Cholinergic syndrome, all grades, % of patients” value [2] of the same molecule?
Answer: The value was 61 ^a %.

Question: And the “Diarrhoea, Grade 3–4, % of patients” value [2]?
Answer: The value was 13%.

Question: What about the “Diarrhoea, all grades, % of patients” value [2] of the same molecule?
Answer: Its value is 74%.

Question: What about the “Fatigue, Grade 3–4, % of patients” value [2] of the same molecule?
Answer: Its value is 4%.

Question: And the “Fatigue, all grades, % of patients” value [2]?
Answer: The value was 61%.

Question: What about the “Fever in absence of infection, Grade 3–4, % of patients” value [2] of the same molecule?
Answer: Its value is 4%.

Question: What about the “Fever in absence of infection, all grades, % of patients” value [2] of the same molecule?
Answer: The value was 15%.

Question: And the “Gastrointestinal pain, Grade 3–4, % of patients” value [2]?
Answer: Its value is 2%.

Question: What about the “Gastrointestinal pain, all grades, % of patients” value [2] of the same molecule?
Answer: Its value is 17%.

Question: What about the “Infection, all grades, % of patients” value [2] of the same molecule?
Answer: The value was 11%.

Question: And the “Nausea, Grade 3–4, % of patients” value [2]?
Answer: Its value is 9%.

Question: And the “Nausea, all grades, % of patients” value [2]?
Answer: The value was 65%.

Question: And the “Vomiting, Grade 3–4, % of patients” value [2]?
Answer: The value was 9%.

Question: And the “Vomiting, all grades, % of patients” value [2]?
Answer: The value was 50%.

Question: And the “Median time to recovery from grade 3–4 neutropenia” value (arm C (250 mg m^−2 90-min i.v. q2 weeks), range 1–12)?
Answer: Its value is 7 days.

Question: What about the “Median number of days to grade 3–4 nadir (neutropenia)” value (arm C (250 mg m^−2 90-min i.v. q2 weeks), range 6–17) of the same molecule?
Answer: The value was 7 days.

Question: What about the “Anaemia, Grade 3–4, %Patients” value [1] of the same molecule?
Answer: Its value is 4/4%.

Question: And the “Anaemia, all grades, %Patients” value [1]?
Answer: Its value is 91%.

Question: And the “Leukocytopenia, Grade 3–4, %Patients” value [1]?
Answer: Its value is 15%.

Question: And the “Leukocytopenia, all grades, %Patients” value [1]?
Answer: Its value is 70%.

Question: What about the “Neutropenia, Grade 3–4, %Patients” value [1] of the same molecule?
Answer: Its value is 28%.

Question: What about the “Neutropenia, all grades, %Patients” value [1] of the same molecule?
Answer: The value was 65%.

Question: What about the “Thrombocytopenia, Grade 3–4, %Patients” value [1] of the same molecule?
Answer: The value was 0/0%.

Question: What about the “Thrombocytopenia, all grades, %Patients” value [1] of the same molecule?
Answer: Its value is 15%.

Question: What about the “Anaemia, Grade 3–4, %Cycles” value [3] of the same molecule?
Answer: Its value is 0/0%.

Question: What about the “Anaemia, all grades, %Cycles” value [3] of the same molecule?
Answer: Its value is 83%.

Question: What about the “Discontinuation due to toxicity, main reason diarrhoea” value [3] of the same molecule?
Answer: The value was 14%.

Question: What about the “Discontinuation due to toxicity, main reason vomiting” value [3] of the same molecule?
Answer: The value was 14%.

Question: What about the “Episodes of grade 3–4 neutropenia with duration <8 days” value [3] of the same molecule?
Answer: The value was 25%.

Question: And the “Leukocytopenia, Grade 3–4, %Cycles” value [3]?
Answer: Its value is 3%.

Question: What about the “Leukocytopenia, all grades, %Cycles” value [3] of the same molecule?
Answer: The value was 24%.

Question: What about the “Neutropenia, Grade 3–4, %Cycles” value [3] of the same molecule?
Answer: Its value is 5%.

Question: And the “Neutropenia, all grades, %Cycles” value [3]?
Answer: Its value is 15%.

Question: And the “Neutropenic infection, %Cycles” value [3]?
Answer: The value was 1%.

Question: And the “Neutropenic infection, %Patients” value [3]?
Answer: The value was 2%.

Question: And the “Number of patients with at least one grade 3–4 adverse event possibly or probably related to irinotecan” value [3]?
Answer: The value was 22.

Question: What about the “Patients who discontinued treatment due to toxicity (from the study drug)” value [3] of the same molecule?
Answer: Its value is 21%.

Question: What about the “Patients with at least one grade 3–4 adverse event possibly or probably related to irinotecan, %” value [3] of the same molecule?
Answer: Its value is 50%.

Question: And the “Thrombocytopenia, Grade 3–4, %Cycles” value [3]?
Answer: The value was 3%.

Question: And the “Thrombocytopenia, all grades, %Cycles” value [3]?
Answer: The value was 8%.

Question: What about the “Alopecia, all grades, % of patients” value [4] of the same molecule?
Answer: Its value is 34 ^b %.

Question: What about the “Anorexia, Grade 3–4, % of patients” value [4] of the same molecule?
Answer: Its value is 5%.

Question: What about the “Anorexia, all grades, % of patients” value [4] of the same molecule?
Answer: Its value is 34%.

Question: And the “Cholinergic syndrome, all grades, % of patients” value [4]?
Answer: The value was 7 ^a %.

Question: And the “Diarrhoea, Grade 3–4, % of patients” value [4]?
Answer: The value was 25%.

Question: What about the “Diarrhoea, all grades, % of patients” value [4] of the same molecule?
Answer: The value was 77%.

Question: What about the “Fatigue, Grade 3–4, % of patients” value [4] of the same molecule?
Answer: The value was 7%.

Question: And the “Fatigue, all grades, % of patients” value [4]?
Answer: The value was 52%.

Question: What about the “Fever in absence of infection, all grades, % of patients” value [4] of the same molecule?
Answer: Its value is 16%.

Question: And the “Gastrointestinal pain, Grade 3–4, % of patients” value [4]?
Answer: The value was 2%.

Question: And the “Gastrointestinal pain, all grades, % of patients” value [4]?
Answer: Its value is 23%.

Question: What about the “Infection, Grade 3–4, % of patients” value [4] of the same molecule?
Answer: The value was 7%.

Question: What about the “Infection, all grades, % of patients” value [4] of the same molecule?
Answer: Its value is 11%.

Question: And the “Nausea, Grade 3–4, % of patients” value [4]?
Answer: Its value is 23%.

Question: What about the “Nausea, all grades, % of patients” value [4] of the same molecule?
Answer: Its value is 80%.

Question: And the “Vomiting, Grade 3–4, % of patients” value [4]?
Answer: Its value is 16%.

Question: What about the “Vomiting, all grades, % of patients” value [4] of the same molecule?
Answer: The value was 59%.

Question: And the “Median time to recovery from grade 3–4 neutropenia” value (arm D (10 mg m^−2 day^−1 14-day continuous infusion q3 weeks), range 4–4)?
Answer: Its value is 4 days.

Question: And the “Median number of days to grade 3–4 nadir (neutropenia)” value (arm D (10 mg m^−2 day^−1 14-day continuous infusion q3 weeks), range 14–19)?
Answer: Its value is 16 days.

Question: And the “Anaemia, Grade 3–4, %Patients” value [3]?
Answer: Its value is 0/0%.

Question: And the “Anaemia, all grades, %Patients” value [3]?
Answer: The value was 91%.

Question: What about the “Leukocytopenia, Grade 3–4, %Patients” value [3] of the same molecule?
Answer: The value was 5%.

Question: What about the “Leukocytopenia, all grades, %Patients” value [3] of the same molecule?
Answer: Its value is 30%.

Question: What about the “Neutropenia, Grade 3–4, %Patients” value [3] of the same molecule?
Answer: The value was 9%.

Question: What about the “Neutropenia, all grades, %Patients” value [3] of the same molecule?
Answer: Its value is 23%.

Question: And the “Thrombocytopenia, Grade 3–4, %Patients” value [3]?
Answer: Its value is 5%.

Question: What about the “Thrombocytopenia, all grades, %Patients” value [3] of the same molecule?
Answer: The value was 9%.
